{
  "source": "patent US5958770A",
  "about": "“Glycoalkaloids” (priority 1990, dated 1999)",
  "key": {"tumour": {"system": "tumour", "details": "cited from earlier work"}, "[1]": {"test": "Inhibition of tritiated thymidine uptake, unstimulated lymphocytes", "details": "human, unstimulated lymphocytes", "protocol": "(§4) This was cultured for 48 hours and pulsed with tritiated thymidine for a further 24 hours. In the inhibition studies, the cell concentration was 8×10^5 /ml.\n(§5) All cells were harvested by vacuum filtration by washing in 250 μl of each of phosphate buffered saline, 5% trichloroacetic acid, 1.0M NaCl and 95% ethanol and subjected to β-scintillatian counting. Similarly, peripheral human blood lymphocytes were isolated and cultured 2×10^5 lymphocytes in CO2 1640TCM 10% HIFCS. Lymphocytes were stimulated with 20 μg/ml PHA, Con A or PWM, and cultured for 48 hrs followed by a 24 hr pulse. […] Cell concentrations were 8×10^4 /well total volume 250 μl. The dpm of the experimental replicates were expressed as a percentage of the mean value of the controls, and the mean value of the experimental replicates calculated."}, "[2]": {"system": "lymphoblastoid cells (EBV transformed lymphocytes)", "test": "cells", "description": "(§1) The inhibition of cell replication by steroid alkaloids is determined by the inhibition of the incorporation of ^3 H thymidine into DNA. Using this technique, it should be possible to monitor any preferential inhibition of uptake of ^3 H thymidine by cancer cells.\n(§2) Cells were maintained as monolayers in RPM1-1640 tissue culture media (Grant Island Biological Co) buffered with N-2-hydroxy-ethylpiperazine-N-2-ethanesulphonic acid pH 7.5 and supplemented with 10% heat inactivated fetal calf serum (FCS): (i) a human ovarian cancer cell line (C180-135), (ii) HeLa cells, (iii) human fibroblasts, and (iv) as a cell suspension of lymphoblastoid cells (EBV transformed lymphocytes). Monolayers were trypsinized to form a cell suspension. […] Cell concentration was adjusted to 2×10^5 cells/ml, and 2×10^4 cells were added in replicates of 10 to the wells (1×10^5 /ml well) of HA microtitre plates (Millipore Corp., USA). The cells were preincubated at 37.5° C. for 7 hours prior to the addition of 50 μl of the cytotoxic drug followed by the addition of 50 μl 5 uCi/ml of ^3 H thymidine, in the same tissue culture media 21 hours later. Incubation was continued for a total of 24 hours, which includes the pre-incubation time.\n(§3) Appropriate DMSO cytotoxicity studies were also conducted. Solasodine glycosides were supplied as a mixture (BEC), and as separate components, solamargine, solasonine, a mixture of di- and mono-glycosides and the aglycone solasodine. All cytotoxic drugs were further diluted with HIFCS/TCM before testing. 5×10^4 ovarian cancer cells (200 μl/chamber of a chamber of microscope slide (Lab Tek Miles Scientific) were used. Controls received 50 μl HIFCS/TCM and experimental chambers 50 μl of solasodine glycosides (BEC) 1.5-3.8 μM/L after 7 hrs preincubation, and incubated for a further 3 hrs. Similarly, the cells were treated with the aglycone solasodine 19.4-96.8 μM/L. The cells were fixed and examined by the Papanicolaou method."}, "human fibroblasts": {"system": "human fibroblasts", "test": "cells", "details": "FB; NSE = no significant effect", "description": "as §1, §2, §3"}, "HeLa cells": {"system": "HeLa cells", "test": "cells", "description": "as §1, §2, §3"}, "[3]": {"test": "Inhibition of tritiated thymidine uptake, PWM stimulated lymphocytes", "details": "human, pwm stimulated lymphocytes", "protocol": "as §4, §5"}, "[4]": {"test": "Inhibition of tritiated thymidine uptake, Con A stimulated lymphocytes", "details": "human, con a stimulated lymphocytes", "protocol": "as §4, §5"}, "ovarian cancer cells": {"system": "ovarian cancer cells", "test": "Inhibition of tritiated thymidine uptake, ovarian cancer cells", "details": "read-out: LD50 (dose to inhibit 50% tritiated thymidine uptake); OvCa", "description": "as §1, §2, §3"}, "[5]": {"test": "Inhibition of tritiated thymidine uptake, PHA stimulated lymphocytes", "details": "human, pha stimulated lymphocytes", "protocol": "as §4, §5"}, "[6]": {"system": "ovarian cancer cells, HeLa cells, lymphoblastoid cells, fibroblasts", "test": "Cytotoxicity / inhibition of tritiated thymidine uptake, cell types taken together", "details": "normal versus cancer cells", "description": "as §1, §2, §3"}, "cancer": {"system": "cancer", "details": "rats; cited from earlier work"}},
  "data": [
    {"compound": "C[C@H]1CC[C@]2(NC1)O[C@H]1C[C@H]3[C@@H]4CC=C5C[C@@H](O[C@@H]6O[C@H](CO)[C@@H](O[C@@H]7O[C@@H](C)[C@H](O)[C@@H](O)[C@H]7O)[C@H](O)[C@H]6O[C@@H]6O[C@@H](C)[C@H](O)[C@@H](O)[C@H]6O)CC[C@]5(C)[C@H]4CC[C@]3(C)[C@H]1[C@@H]2C", "note": "[B-solamarine]", "values": [
      {"measurement": "tumour inhibition", "setting": "tumour", "value": "tumour inhibitor"}
    ]},
    {"compound": "O=C(O)CCCc1ccc(N(CCCl)CCCl)cc1", "note": "[chlorambucil, reference compound]", "values": [
      {"measurement": "CC50", "setting": "[1]", "value": 33, "unit": "µM"},
      {"measurement": "TR50 (thymidine ratio relative to ovarian cancer cells)", "setting": "[2]; LCL / OvCa", "value": 0.45},
      {"measurement": "IC50", "setting": "[2]; read-out: LD50 (dose to inhibit 50% tritiated thymidine uptake), LCL", "value": 27, "unit": "µM"},
      {"measurement": "LD50 (dose to inhibit 50% tritiated thymidine uptake)", "setting": "human fibroblasts", "value": "NSE"},
      {"measurement": "TR50 (thymidine ratio relative to ovarian cancer cells)", "setting": "HeLa cells; HeLa / OvCa", "value": 0.79},
      {"measurement": "IC50", "setting": "HeLa cells; read-out: LD50 (dose to inhibit 50% tritiated thymidine uptake), HeLa", "value": 47.5, "unit": "µM"},
      {"measurement": "CC50", "setting": "[3]", "value": 22, "unit": "µM"},
      {"measurement": "CC50", "setting": "[4]", "value": 33, "unit": "µM"},
      {"measurement": "IC50", "setting": "ovarian cancer cells", "value": 60, "unit": "µM"},
      {"measurement": "CC50", "setting": "[5]", "value": 24.6, "unit": "µM"},
      {"measurement": "cytotoxicity to normal cells relative to cancer cells", "setting": "[6]", "value": "equally or more cytotoxic to normal cells relative to cancer cells"}
    ]},
    {"compound": "rhamnosyl [4→3] Solasodine [Solaplumbin]", "values": [
      {"measurement": "anticancer properties", "setting": "cancer", "value": "anticancer properties in rats"}
    ]}
  ]
}
